The target of the experiment is T1, SUV39H1 (Homo sapiens, UniProt O43463).
T1 construct: recombinant SUV39H1
T1 sequence (O43463 1-412): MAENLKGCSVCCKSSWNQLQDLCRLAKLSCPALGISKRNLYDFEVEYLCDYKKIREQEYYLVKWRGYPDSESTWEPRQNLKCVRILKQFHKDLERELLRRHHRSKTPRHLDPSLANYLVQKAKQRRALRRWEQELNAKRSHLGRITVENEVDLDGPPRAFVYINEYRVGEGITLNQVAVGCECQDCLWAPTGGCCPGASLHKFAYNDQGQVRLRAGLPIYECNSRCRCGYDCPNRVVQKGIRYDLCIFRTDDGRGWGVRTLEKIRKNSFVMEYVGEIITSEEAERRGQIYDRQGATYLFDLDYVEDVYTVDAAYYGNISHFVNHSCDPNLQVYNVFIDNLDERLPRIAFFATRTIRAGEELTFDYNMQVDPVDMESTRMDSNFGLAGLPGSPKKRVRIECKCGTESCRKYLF
Put plainly: cell-free histone methyltransferase activity assay with recombinant enzyme (data not shown). Type of experiment: biochemical.

The source of these data is article PMC5349906, “NT1721, a novel epidithiodiketopiperazine, exhibits potent in vitro and in vivo efficacy against acute myeloid leukemia” (Oncotarget, 2016).

Molecules are shown by their SMILES. pIC50: −log10 of the molar value.

One may read the pIC50 as −log10 of the IC50, conventionally taken in molar units. Turning to `CN1C(=O)[C@@]23C[C@](C)(C#N)[C@H](c4ccc5c(c4)OCO5)N2C(=O)[C@]1(C)SS3` (racemic) [NT1721], the pIC50 was 5.89.
